ChEMBL document CHEMBL6182948 (J Med Chem, 2025)

What was measured:
CYP1B1 = molecular target: T1, CYP1B1 (Homo sapiens, UniProt Q16678); test: Inhibition of human recombinant CYP1B1 using 7-ethoxyresorufin as substrate at 100 uM incubated under dark condition for 30 mins in presence of NADPH by EROD fluorescence assay relative to control; assay type: ADME; details: recombinant CYP1B1, probe 7-ethoxyresorufin
T1 sequence (Q16678 whole entry): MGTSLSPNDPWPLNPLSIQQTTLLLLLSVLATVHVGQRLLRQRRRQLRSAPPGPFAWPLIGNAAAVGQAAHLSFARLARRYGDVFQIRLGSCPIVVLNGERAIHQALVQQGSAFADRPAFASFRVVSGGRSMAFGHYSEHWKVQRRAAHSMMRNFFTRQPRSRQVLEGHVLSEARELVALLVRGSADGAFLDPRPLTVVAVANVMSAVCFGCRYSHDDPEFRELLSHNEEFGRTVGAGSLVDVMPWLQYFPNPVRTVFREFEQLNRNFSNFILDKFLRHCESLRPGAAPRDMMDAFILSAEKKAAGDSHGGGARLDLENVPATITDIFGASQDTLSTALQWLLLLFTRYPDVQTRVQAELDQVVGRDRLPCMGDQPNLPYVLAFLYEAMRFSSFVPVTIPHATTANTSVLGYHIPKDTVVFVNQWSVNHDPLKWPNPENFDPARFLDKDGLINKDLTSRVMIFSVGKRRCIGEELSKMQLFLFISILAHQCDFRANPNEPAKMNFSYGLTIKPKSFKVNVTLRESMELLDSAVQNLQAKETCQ

Cytochrome P450 1B1 = molecular target: T2, Cytochrome P450 1B1 (Homo sapiens, UniProt Q16678); test: Inhibition of human recombinant CYP1B1 using 7-ethoxyresorufin as substrate incubated under dark condition for 30 mins in presence of NADPH by EROD fluorescence assay; assay type: ADME
T2 sequence (Q16678 whole entry): T1 sequence (Q16678 whole entry)

Homo sapiens [1] = species on record: Homo sapiens; test: Selectivity index, ratio of IC50 for human recombinant CYP1A2 to IC50 for human recombinant CYP1B1 using 7-ethoxyresorufin as substrate
Homo sapiens [2] = species on record: Homo sapiens; test: Selectivity index, ratio of IC50 for human recombinant CYP1A1 to IC50 for human recombinant CYP1B1 using 7-ethoxyresorufin as substrate
Cytochrome P450 1A1 = molecular target: T3, Cytochrome P450 1A1 (Homo sapiens, UniProt P04798); test: Inhibition of human recombinant CYP1A1 using 7-ethoxyresorufin as substrate incubated under dark condition for 15 mins in presence of NADPH by EROD fluorescence assay; assay type: ADME
T3 sequence (P04798 whole entry): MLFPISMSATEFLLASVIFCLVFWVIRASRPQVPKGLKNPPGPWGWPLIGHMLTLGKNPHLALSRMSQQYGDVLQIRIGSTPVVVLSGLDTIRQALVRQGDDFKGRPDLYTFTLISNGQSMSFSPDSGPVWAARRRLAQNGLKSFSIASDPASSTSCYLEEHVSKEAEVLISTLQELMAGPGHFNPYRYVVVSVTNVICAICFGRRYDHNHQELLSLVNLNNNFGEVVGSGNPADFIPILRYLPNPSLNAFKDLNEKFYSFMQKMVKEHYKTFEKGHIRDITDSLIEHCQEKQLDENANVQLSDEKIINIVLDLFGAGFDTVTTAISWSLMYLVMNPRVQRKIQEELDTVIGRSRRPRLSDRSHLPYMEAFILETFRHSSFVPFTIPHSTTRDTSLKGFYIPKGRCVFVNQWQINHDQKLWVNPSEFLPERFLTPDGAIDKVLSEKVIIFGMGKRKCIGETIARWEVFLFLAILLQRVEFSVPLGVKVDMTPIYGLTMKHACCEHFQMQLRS

Cytochrome P450 1A2 = molecular target: T4, Cytochrome P450 1A2 (Homo sapiens, UniProt P05177); test: Inhibition of human recombinant CYP1A2 using 7-ethoxyresorufin as substrate incubated under dark condition for 45 mins in presence of NADPH by EROD fluorescence assay; assay type: ADME
T4 sequence (P05177 whole entry): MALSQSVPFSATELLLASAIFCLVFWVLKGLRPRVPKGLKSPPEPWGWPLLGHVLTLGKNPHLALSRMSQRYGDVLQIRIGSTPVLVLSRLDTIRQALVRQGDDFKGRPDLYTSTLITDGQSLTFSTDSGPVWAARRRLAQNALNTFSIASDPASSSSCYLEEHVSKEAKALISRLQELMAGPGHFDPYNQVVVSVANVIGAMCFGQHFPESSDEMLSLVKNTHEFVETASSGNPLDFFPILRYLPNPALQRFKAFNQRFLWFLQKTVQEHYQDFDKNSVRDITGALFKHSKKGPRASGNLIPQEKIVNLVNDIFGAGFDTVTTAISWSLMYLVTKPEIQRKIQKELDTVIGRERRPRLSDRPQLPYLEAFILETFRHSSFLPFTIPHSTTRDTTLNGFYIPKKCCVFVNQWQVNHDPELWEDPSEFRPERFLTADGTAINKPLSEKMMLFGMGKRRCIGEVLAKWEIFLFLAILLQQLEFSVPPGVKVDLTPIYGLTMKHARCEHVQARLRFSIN

Structure (SMILES)	inhibition at 0.5 h, 100 µM (CYP1B1) [%]	IC50 (Cytochrome P450 1B1) [nM]	Ratio IC50 (Homo sapiens [1])	Ratio IC50 (Homo sapiens [2])	IC50 (Cytochrome P450 1A1) [nM]	IC50 (Cytochrome P450 1A2) [nM]
O=C(Nc1ccc(N2CCNCC2)cc1)c1nc(-c2ccccc2)cs1	8.7	–	–	–	–	–
Cc1sc(C(=O)Nc2ccc(OC(F)F)cc2)nc1-c1cccc(F)c1	–	3.04	889	61.9	188	2700
CC(C)c1ccc(-c2csc(C(=O)Nc3cc(Cl)cc(Cl)c3)n2)cc1	–	276	34.5	1.7	456	9540
COc1cc(NC(=O)c2nc(-c3ccccc3F)cs2)cc(OC)c1	–	16.6	86.5	21.5	358	1440
NC(=O)c1cccc(-c2csc(C(=O)Nc3ccc(OC(F)F)cc3)n2)c1	–	2.01	2490	32	64.4	5010
O=C(Nc1cc(Cl)cc(Cl)c1)c1nc(-c2cncc(Cl)c2)cs1	–	1.77	5.5	6.5	11.5	9.7
N#Cc1ccc(-c2csc(C(=O)Nc3ccc(OC(F)F)cc3)n2)cc1	–	0.99	> 101000	114	113	> 100000
NC(=O)c1ccc(-c2csc(C(=O)Nc3cc(Cl)cc(Cl)c3)n2)cc1	–	7.97	> 1250	> 12500	> 100000	> 10000
Cc1cccc(-c2csc(C(=O)Nc3cc(Cl)cc(Cl)c3)n2)c1	–	43.7	> 229	53.4	2330	> 10000
COc1cc(NC(=O)c2nc(-c3ccc(F)cc3)cs2)cc(OC)c1	–	3.83	> 2610	108	414	> 10000
Cc1sc(C(=O)Nc2cc(Cl)cc(Cl)c2)nc1-c1cccc(F)c1	–	0.88	1600	138	122	1410
O=C(Nc1ccc(OC(F)F)cc1)c1nc(-c2cccc(F)c2)cs1	–	0.02	34400	7170	143	688
O=C(Nc1ccc(Cl)cc1Cl)c1nc(-c2cccc(F)c2)cs1	–	1.92	1240	77.4	149	2380
O=C(Nc1ccccc1)c1nc(-c2ccccc2)cs1	–	27	16.3	22.1	597	441
O=C(Nc1cc(Cl)cc(Cl)c1)c1nc(-c2ccc([N+](=O)[O-])cc2)cs1	–	27.4	1400	> 3650	> 100000	38400
O=C(Nc1cc(Cl)cc(Cl)c1)c1nc(-c2ccccc2Cl)cs1	–	7.95	67.6	25.6	203	537
NC(=O)c1cccc(-c2csc(C(=O)Nc3ccc(C(F)(F)F)cc3)n2)c1	–	2.18	2640	20.2	44.2	5770
O=C(Nc1cc(Cl)cc(Cl)c1)c1nc(-c2ccc(-c3ccccc3)cc2)cs1	–	1950	6.5	4.8	9310	12700
O=C(Nc1cc(Cl)cc(Cl)c1)c1nc(-c2ccccc2F)cs1	–	1.21	147	107	129	178
Cc1sc(C(=O)Nc2cc(Cl)cc(Cl)c2)nc1-c1ccc(F)cc1	–	1.25	2920	55.4	69.2	3650
O=C(Nc1cc(Cl)cc(Cl)c1)c1nc(-c2ccc(F)cc2)cs1	–	1.42	2990	195	277	4240
NC(=O)c1ccc(-c2csc(C(=O)Nc3ccc(C(F)(F)F)cc3)n2)cc1	–	0.83	> 12100	170	141	> 10000
N#Cc1cccc(-c2csc(C(=O)Nc3ccc(OC(F)F)cc3)n2)c1	–	9.02	> 5550	7.8	70	> 50000
O=C(Nc1cc(Cl)cc(Cl)c1)c1nc(-c2ccc(Cl)cc2)cs1	–	1.45	912	266	386	1330
O=C(Nc1cc(Cl)cc(Cl)c1)c1nc(-c2ccc(F)cc2)c(-c2ccccc2)s1	–	1070	> 93.7	0.1	121	> 100000
COc1cc(NC(=O)c2nc(-c3cccc(F)c3)cs2)cc(OC)c1	–	7.29	993	65.1	474	7240
N#Cc1ccc(-c2csc(C(=O)Nc3cc(Cl)cc(Cl)c3)n2)cn1	–	11.5	481	6.2	72	5550
CCc1sc(C(=O)Nc2cc(Cl)cc(Cl)c2)nc1-c1ccc(F)cc1	–	101	> 990	2.2	226	> 100000
